{
  "source": "patent EP2508186A1",
  "about": "“Phenoxazinones or phenothiazones as inhibitors of amyloid formation” (Max-Delbrück-Centrum für Molekulare Medizin, priority 2011, dated 2012)",
  "key": {"Aβ42 [1]": {"molecular_target": "T1, Aβ42 (Homo sapiens, UniProt P05067)", "T1 construct": "the amyloid-β 1-42 (Aβ42) peptide", "T1 sequence (P05067 672-713 limits assumed)": "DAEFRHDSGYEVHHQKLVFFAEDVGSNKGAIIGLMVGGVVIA", "assay": "Membrane filter retardation assay (FRA) of Aβ42 aggregation", "assay_type": "biochemical", "method": "2.1.1. Protein aggregation. For aggregation reactions, Aβ42 stock solution (1 mM in DMSO) was diluted in phosphate buffer (100 mM sodium phosphate, 10 mM NaCl, pH 7.4) to 15 µM and incubated in 1.5 ml Eppendorf tubes (Eppendorf, Germany) at 37°C. Generation of soluble Aβ42 oligomers was performed as described (Lambert, 1998). Aβ42 DMSO stock solutions were diluted in Ham's F12 medium without phenol red (Biosource) at a final peptide concentration of 100 µM, with or without test compounds. After brief vortexing, samples were incubated at 4-6°C for 24 h. […]\n2.1.2. […] Aggregates retained on the filter membrane were detected using the 6E10 antibody (1 : 5.000) (Sigma, Deisenhofen, Germany), and secondary antibodies conjugated to either horseradish peroxidase or alkaline phosphatase (Promega, Germany). […] After 30 min incubation at 37°C with proteinase K, samples were denatured and analyzed by FRA.\n2.2.1 Identification of small molecules that stimulate Aβ42 aggregation. In order to find chemical compounds that promote Aβ42 amyloidogenesis, a membrane filter retardation assay (FRA) was established that allows the identification of large, insoluble protein aggregates, while monomers and small, soluble oligomers are not detected (Fig. 1). […]"}, "Aβ42 [2]": {"molecular_target": "T1, Aβ42", "assay": "Circular dichroism (CD) spectroscopy of Aβ42 β-sheet formation", "assay_type": "biochemical", "settings": "Aβ42 15 µM, phosphate buffer", "text": "Therefore, we investigated whether 04 treatment influences the structure of Aβ42 amyloid fibrils using circular dichroism (CD) spectroscopy (Ehrnhoefer, 2008).\nNext, the conversion of unstructured Aβ42 monomers into β-sheet-rich early aggregates was investigated. The change in CD signal at 218 nm over the course of 3,000 s was monitored for 04-treated and untreated Aβ42 peptides.\nA monoexponential data fit yielded a time constant of τ = 150 ± 40 s for O4-treated samples, while a time constant of τ = 350 ± 30 s was obtained for untreated samples."}, "Aβ42 oligomers": {"molecular_target": "T2, Aβ42 oligomers (Homo sapiens, UniProt P05067)", "T2 construct": "the amyloid-β 1-42 (Aβ42) peptide", "T2 sequence (P05067 672-713 limits assumed)": "as above", "assay": "Colorimetric dot blot binding assay on nitrocellulose membrane", "settings": "for Kd: 04 0.4-200 µM, 15 min, read-out: apparent dissociation constant", "method": "2.2.4. 04 converts small, unstable Aβ42 oligomers into larger SDS-stable protein aggregates. To examine whether 04 converts small Aβ42 oligomers into larger amyloid fibrils, we first tested whether the compound can bind to different types of preformed aggregate species. Peptide preparations highly enriched in Aβ42 monomers (Ehrnhoefer, 2008), spherical oligomers (Ma, 2006) or large amyloid fibrils (Ehrnhoefer, 2008) were produced and incubated with 04 for 15 minutes at room temperature. Then, samples were spotted onto a nitrocellulose membrane and after washing with buffer (non-denaturing conditions) 04 binding was examined. As 04 is a dye and blue in color its binding to amyloid aggregates can be detected colorimetrically (Fig. 3c).\nBinding of 04 to Aβ42 oligomers was quantified colorimetrically (Fig. 5)."}, "[3]": {"molecular_target": "T3, A11-reactive amyloid oligomers (Homo sapiens, UniProt P05067)", "T3 construct": "the amyloid-β 1-42 (Aβ42) peptide", "T3 sequence (P05067 672-713 limits assumed)": "as above", "assay": "Dot blot assay with conformation-specific antibody A11", "assay_type": "biochemical", "settings": "Aβ42 15 µM, 48 h at 37°C, 04 at 1:1 or 5:1 molar ratio", "method": "Finally, we examined the effect of 04 on potentially toxic amyloid oligomers that are recognized by the conformation-specific antibody A11 (Kayed, 2003). Soluble Aβ42 peptides were incubated in the presence and absence of 04 for 48 h at 37°C and the resulting aggregate species were analyzed by dot blot assays."}, "Aβ42 aggregates": {"molecular_target": "T4, Aβ42 aggregates (Homo sapiens, UniProt P05067)", "T4 construct": "the amyloid-β 1-42 (Aβ42) peptide", "T4 sequence (P05067 672-713 limits assumed)": "as above", "assay": "Dot blot assays of Aβ42 aggregates with antibodies 4G8, 6E10 and B10", "assay_type": "biochemical", "settings": "Aβ42 15 µM", "method": "2.2.6. 04-generated amyloid fibrils have altered surface properties. We next examined whether 04 treatment influences the morphology of mature amyloid fibrils. […] of chemical compound and the resulting aggregates were analyzed with dot blot assays using the monoclonal antibodies 6E10 and 4G8, which specifically recognize amino acids 4-9 and 18-22 in Aβ42 peptides, respectively (Kim, 1988).\nTo confirm the observation that 04 alters surface properties of Aβ42 aggregates, we also examined whether 04-generated Aβ42 aggregates can be detected with the conformation specific antibody B10, which preferentially recognizes mature, β-sheet-rich amyloid fibrils and protofibrils, while monomers and low molecular oligomers are less efficiently detected (Habicht, 2007)."}, "[4]": {"test_system": "SH-SY5Y neuroblastoma cells", "assay": "MTT assay of Aβ42 toxicity", "assay_type": "cell-based", "settings": "Aβ42 5 µM, different concentrations of 04, 48 h; Aβ42 alone ∼50% inhibition", "method": "2.2.8. 04-mediated acceleration of amyloidogenesis reduces Aβ42 toxicity in cell-based assays and brain slices. To study whether O4-mediated conversion of aggregation intermediates into stable amyloid fibrils influences Aβ42 toxicity, SH-SY5Y neuroblastoma cells were incubated for 48 h with soluble Aβ42 peptides and different concentrations of 04. Viability of cells was examined using a 3-(4,5-dimethylthiazol-2yl)-2,5-diphenyltetrazolium bromide (MTT) assay (Hansen, 1989)."}},
  "note": "Where two headings read alike, the source gives them in different places.",
  "data": [
    {"molecule": "O=c1cc2oc3cc(O)c(-c4ccc(O)cc4O)cc3nc-2cc1-c1ccc(O)cc1O", "note": "[Compound 04, 2,8-bis-(2,4-dihydroxyphenyl)-7-hydroxy-phenoxazin-3-one]", "values": [
      {"measurement": "formation of SDS-stable insoluble Aβ42 aggregates", "setting": "Aβ42 [1]; Aβ42 15 µM, equimolar or 5-fold molar excess of compound, detection with 6E10 antibody", "result": "promotes spontaneous assembly of Aβ42 insoluble aggregates in a concentration-dependent manner"},
      {"measurement": "proteinase K resistance of Aβ42 aggregates", "setting": "Aβ42 [1]; aggregates generated 4 and 7 d at 37°C with or without 04 (15 µM), proteinase K 10-200 µg/ml, 30 min at 37°C", "result": "more proteinase K resistant than untreated aggregates"},
      {"measurement": "time constant τ of β-sheet formation (ellipticity at 218 nm)", "setting": "Aβ42 [2]; 04 75 µM, 37°C, monoexponential decay fit, control 350 ± 30 nm", "result": "150 ± 40", "unit": "s"},
      {"measurement": "time constant τ of β-sheet formation (CD signal at 218 nm)", "setting": "Aβ42 [2]; 04 75 µM, 37°C, monoexponential fit, untreated 350 ± 30 s", "result": "150 ± 40", "unit": "s"},
      {"measurement": "CD spectra of Aβ42 fibrils", "setting": "Aβ42 [2]; equimolar 04, 37°C", "result": "CD spectra characteristic of β-sheet-rich amyloid structures"},
      {"measurement": "Kd", "setting": "Aβ42 oligomers; Aβ42 oligomers equivalent to monomer concentration 3 µM", "result": "50 ± 2", "unit": "µM"},
      {"measurement": "Kd", "setting": "Aβ42 oligomers; Aβ42 oligomers equivalent to monomer concentration 6 µM", "result": "25 ± 1", "unit": "µM"},
      {"measurement": "Kd", "setting": "Aβ42 oligomers; Aβ42 oligomers equivalent to monomer concentration 12 µM", "result": "3.5 ± 0.1", "unit": "µM"},
      {"measurement": "04 staining of Aβ42 monomers, oligomers and fibrils", "setting": "Aβ42 oligomers; Aβ42 preparations 15 µM, 04 3, 15 and 75 µM, 15 min at room temperature, non-denaturing wash", "result": "readily stains oligomeric and fibrillar Aβ42 aggregates, while monomers were less efficiently detected"},
      {"measurement": "Hill coefficient n", "setting": "Aβ42 oligomers; cooperative binding model fitted to the oligomer binding data", "result": 4},
      {"measurement": "A11-reactive oligomers", "setting": "[3]", "result": "detected in the absence but not in the presence of the chemical compound"},
      {"measurement": "B10 antibody binding to Aβ42 aggregates", "setting": "Aβ42 aggregates; 48 h at 37°C, increasing concentrations of 04", "result": "reduced B10 binding ability"},
      {"measurement": "recognition of Aβ42 aggregates by 4G8 antibody", "setting": "Aβ42 aggregates; 5 d at 37°C with or without 04, no such effect with 6E10", "result": "less efficiently recognized by the 4G8 antibody"},
      {"measurement": "Aβ42-caused inhibition of MTT reduction", "setting": "[4]", "result": "suppressed in a concentration-dependent manner"}
    ]}
  ]
}
